Test results from ChEMBL document CHEMBL2202996, “Synthesis, evaluation, and radiolabeling of new potent positive allosteric modulators of the metabotropic glutamate receptor 2 as potential tracers for positron emission tomography imaging” (J Med Chem, 2012).

What was measured:
[1] = target: T1, Sodium-dependent dopamine transporter (Homo sapiens, UniProt Q01959); assay: Binding affinity to DAT
D(1A) dopamine receptor [2] = target: T2, D(1A) dopamine receptor (Homo sapiens, UniProt P21728); assay: Binding affinity to dopamine D1 receptor
T2 sequence (P21728 whole entry): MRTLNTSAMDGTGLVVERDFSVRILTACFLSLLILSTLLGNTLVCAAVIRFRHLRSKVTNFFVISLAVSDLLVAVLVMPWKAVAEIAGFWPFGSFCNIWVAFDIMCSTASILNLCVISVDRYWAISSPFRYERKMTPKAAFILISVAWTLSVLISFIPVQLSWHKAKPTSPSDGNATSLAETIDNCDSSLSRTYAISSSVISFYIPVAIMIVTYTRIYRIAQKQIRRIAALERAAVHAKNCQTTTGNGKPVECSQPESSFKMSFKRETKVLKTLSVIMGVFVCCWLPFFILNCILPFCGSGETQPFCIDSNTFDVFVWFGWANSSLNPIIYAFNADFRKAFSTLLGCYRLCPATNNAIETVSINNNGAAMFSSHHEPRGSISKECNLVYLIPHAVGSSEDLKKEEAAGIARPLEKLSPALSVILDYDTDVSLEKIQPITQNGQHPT

[3] = target: T1, Sodium-dependent dopamine transporter; assay: Binding affinity to DAT at 10 uM by CEREP assay
D(1A) dopamine receptor [4] = target: T2, D(1A) dopamine receptor; assay: Binding affinity to dopamine D1 receptor at 10 uM by CEREP assay
[5] = Fraction unbound in human plasma; format: ADME, cell-free
[6] = Fraction unbound in rat plasma; format: ADME, cell-free
Liver microsomes [7] = assay: Drug metabolism in rat liver microsomes assessed as M+O oxidative metabolite; format: ADME, Microsome
Liver microsomes [8] = assay: Drug metabolism in human liver microsomes assessed as M+O oxidative metabolite; format: ADME, Microsome
Liver microsomes [9] = assay: Drug metabolism in rat liver microsomes assessed as O-methylated compound derivative; format: ADME, Microsome
Liver microsomes [10] = assay: Drug metabolism in human liver microsomes assessed as O-methylated compound derivative; format: ADME, Microsome
CHO [11] = assay: Selectivity ratio for rat mGluR6 to human mGluR2 expressed in CHO cell membranes; format: cell-based
CHO [12] = assay: Selectivity ratio for human mGluR4 to human mGluR2 expressed in CHO cell membranes; format: cell-based
HEK293 [13] = assay: Selectivity ratio for human mGluR8 expressed in HEK293 cells to human mGluR2 expressed in CHO cell membranes; format: cell-based
HEK293 [14] = assay: Selectivity ratio for human mGluR7 expressed in HEK293 cells to human mGluR2 expressed in CHO cell membranes; format: cell-based
HEK293 [15] = assay: Selectivity ratio for human mGluR5 expressed in HEK293 cells to human mGluR2 expressed in CHO cell membranes; format: cell-based
HEK293 [16] = assay: Selectivity ratio for human mGluR3 expressed in HEK293 cells to human mGluR2 expressed in CHO cell membranes; format: cell-based
HEK293 [17] = assay: Selectivity ratio for human mGluR1 expressed in HEK293 cells to human mGluR2 expressed in CHO cell membranes; format: cell-based
[18] = Ratio of drug level in brain to plasma of Wistar rat brain at 0.63 mg/kg, iv; format: ADME, organism-based; set-up: dose 0.63 mg/kg, route intravenous; conditions: read-out: BPR
[19] = Cmax in Wistar rat brain at 0.63 mg/kg, iv after 5 mins; format: ADME, organism-based; set-up: dose 0.63 mg/kg, route intravenous
[20] = Drug level in Wistar rat brain at 0.63 mg/kg, iv after 1 hr; format: ADME, organism-based; set-up: dose 0.63 mg/kg, route intravenous; conditions: read-out: Drug uptake
[21] = target: T3, Metabotropic glutamate receptor 2 (Homo sapiens, UniProt Q14416); assay: Displacement of [3H]JNJ-40068782 from human mGLuR2 expressed in CHO cell membrane after 60 mins by liquid scintillation counting; format: cell membranes
Target sequence in this assay (Q14416 whole entry): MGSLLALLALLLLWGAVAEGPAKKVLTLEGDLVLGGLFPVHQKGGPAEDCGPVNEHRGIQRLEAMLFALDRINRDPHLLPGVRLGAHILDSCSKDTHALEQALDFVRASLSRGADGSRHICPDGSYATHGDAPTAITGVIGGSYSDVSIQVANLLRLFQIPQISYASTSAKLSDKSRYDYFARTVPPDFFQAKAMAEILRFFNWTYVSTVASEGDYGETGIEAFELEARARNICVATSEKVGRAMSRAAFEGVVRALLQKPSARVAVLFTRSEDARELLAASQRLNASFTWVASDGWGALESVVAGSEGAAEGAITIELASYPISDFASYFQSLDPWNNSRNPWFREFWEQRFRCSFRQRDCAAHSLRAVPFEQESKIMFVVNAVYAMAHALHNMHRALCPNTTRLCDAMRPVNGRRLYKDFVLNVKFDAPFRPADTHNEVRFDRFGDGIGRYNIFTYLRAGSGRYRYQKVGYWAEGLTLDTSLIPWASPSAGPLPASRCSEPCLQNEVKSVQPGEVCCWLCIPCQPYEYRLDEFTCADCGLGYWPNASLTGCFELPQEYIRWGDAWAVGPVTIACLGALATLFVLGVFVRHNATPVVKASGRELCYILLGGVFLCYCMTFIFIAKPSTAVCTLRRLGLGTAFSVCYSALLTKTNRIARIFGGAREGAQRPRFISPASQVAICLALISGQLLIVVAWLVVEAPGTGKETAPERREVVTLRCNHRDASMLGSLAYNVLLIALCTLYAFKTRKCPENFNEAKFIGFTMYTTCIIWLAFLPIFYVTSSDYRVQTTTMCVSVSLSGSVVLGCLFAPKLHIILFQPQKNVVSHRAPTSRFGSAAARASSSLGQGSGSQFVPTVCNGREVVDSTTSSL

[22] = target: T3, Metabotropic glutamate receptor 2; assay: Agonist activity at human mGLuR2 expressed in CHO cell membrane assessed as […] after 30 mins by scintillation counting relative to control; format: functional, cell membranes
Target sequence in this assay (Q14416 19-872 limits assumed): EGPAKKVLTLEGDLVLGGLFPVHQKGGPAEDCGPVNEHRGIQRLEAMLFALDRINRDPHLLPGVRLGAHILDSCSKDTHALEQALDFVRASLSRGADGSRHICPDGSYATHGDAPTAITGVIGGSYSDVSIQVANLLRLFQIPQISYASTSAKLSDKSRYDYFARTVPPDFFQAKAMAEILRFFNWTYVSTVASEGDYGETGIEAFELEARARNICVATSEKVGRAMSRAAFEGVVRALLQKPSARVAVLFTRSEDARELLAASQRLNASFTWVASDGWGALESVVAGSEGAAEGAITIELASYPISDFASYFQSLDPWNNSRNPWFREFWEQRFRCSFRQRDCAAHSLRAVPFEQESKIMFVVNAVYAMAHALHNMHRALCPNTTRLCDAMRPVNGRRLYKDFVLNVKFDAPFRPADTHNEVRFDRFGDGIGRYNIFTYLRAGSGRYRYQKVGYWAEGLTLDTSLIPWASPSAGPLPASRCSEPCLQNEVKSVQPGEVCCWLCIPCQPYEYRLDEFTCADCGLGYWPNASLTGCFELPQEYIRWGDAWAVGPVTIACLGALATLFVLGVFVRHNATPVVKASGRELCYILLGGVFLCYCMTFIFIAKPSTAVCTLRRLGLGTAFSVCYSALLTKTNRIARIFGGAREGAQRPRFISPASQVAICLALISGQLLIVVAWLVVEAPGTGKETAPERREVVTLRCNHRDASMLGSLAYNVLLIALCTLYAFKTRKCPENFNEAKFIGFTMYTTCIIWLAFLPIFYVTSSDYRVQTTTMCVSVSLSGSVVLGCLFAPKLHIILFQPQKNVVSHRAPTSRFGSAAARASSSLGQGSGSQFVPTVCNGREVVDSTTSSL

[23] = target: T3, Metabotropic glutamate receptor 2; assay: Agonist activity at human mGLuR2 expressed in CHO cell membrane assessed as […] after 30 mins by scintillation counting; format: functional, cell membranes; conditions: read-out: EC50
Target sequence in this assay (Q14416 whole entry): as the sequence (Q14416 whole entry) above

T1 sequence (Q01959 whole entry): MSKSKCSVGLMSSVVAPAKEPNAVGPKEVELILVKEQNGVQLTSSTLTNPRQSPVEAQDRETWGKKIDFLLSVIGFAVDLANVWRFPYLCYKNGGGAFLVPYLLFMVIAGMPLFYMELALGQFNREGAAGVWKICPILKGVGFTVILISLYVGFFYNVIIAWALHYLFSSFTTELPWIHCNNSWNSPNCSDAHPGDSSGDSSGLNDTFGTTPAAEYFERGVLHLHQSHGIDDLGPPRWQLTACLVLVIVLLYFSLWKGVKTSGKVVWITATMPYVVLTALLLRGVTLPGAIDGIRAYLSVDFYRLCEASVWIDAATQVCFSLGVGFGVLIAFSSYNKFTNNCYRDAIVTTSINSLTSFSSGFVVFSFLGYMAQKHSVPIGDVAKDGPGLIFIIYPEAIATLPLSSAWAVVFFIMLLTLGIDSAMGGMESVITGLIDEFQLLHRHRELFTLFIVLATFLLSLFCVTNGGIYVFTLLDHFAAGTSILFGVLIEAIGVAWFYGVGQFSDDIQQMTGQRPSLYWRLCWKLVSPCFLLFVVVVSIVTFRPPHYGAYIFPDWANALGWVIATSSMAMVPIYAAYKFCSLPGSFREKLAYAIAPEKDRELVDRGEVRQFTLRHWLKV

- Ki [1]: 5010 nM
- Ki (D(1A) dopamine receptor [2]): ≥ 6200 nM
- Activity [3]: 83%
- Activity (D(1A) dopamine receptor [4]): 71%
- fraction unbound [5]: < 0.01
- fraction unbound [6]: < 0.01
- Drug metabolism (Liver microsomes [7]): Active
- Drug metabolism (Liver microsomes [8]): Active
- Drug metabolism (Liver microsomes [9]): Active
- Drug metabolism (Liver microsomes [10]): Active
- Kp [18]: 1.1
- Cmax [19]: 316 ng/g
- concentration at 1 h [20]: 50 ng/g
- IC50 [21]: 11.2 nM
- Emax [22]: 283%
- EC50 [23]: 8.2 nM
Compound: COc1ccc(F)cc1C1CCN(c2ccn3c(CC4CC4)nnc3c2Cl)CC1
- Selectivity ratio (CHO [11]): > 350
- Selectivity ratio (CHO [12]): > 350
- Selectivity ratio (HEK293 [13]): > 350
- Selectivity ratio (HEK293 [14]): > 350
- Selectivity ratio (HEK293 [15]): > 350
- Selectivity ratio (HEK293 [16]): 40
- Selectivity ratio (HEK293 [17]): > 350
